From patent US9938267B2, “Heterocyclic inhibitors of glutaminase” (Calithera Biosciences, Inc., priority 2011, dated 2018)
pIC50: −log10 of the molar value. Read-outs that look alike come from different tables or passages of the source.

Key:
[1] = target: recombinant form of Glutaminase 1 (GAC) (Homo sapiens, UniProt O94925); assay: Recombinant enzyme assay (GAC, GDH-coupled absorbance, no preincubation); format: biochemical; details: read-out: GAC Delta N2 IC50 no preinc
Description: Enzymatic reaction was started with the addition of 50 μL of enzyme solution (50 mM Tris-HCl pH 8.0, 0.2 mM EDTA, 150 mM K2HPO4, 0.1 mg/ml BSA, 1 mM DTT, 10 ppm antifoam, 4 units/ml GDH, 4 mM adenosine diphosphate, and 4 nM GAC) and read in a Molecular Devices M5 plate reader at 20° C. The plate reader was configured to read absorbance (λ=340 nm) in kinetic mode for 15 minutes. Data was recorded as milli-absorbance units per minute and slopes were compared to a control compound and a DMSO-only control on the same plate. Compounds with slopes less than the DMSO control were considered inhibitors and plate variability was assessed using the control compound.

P493-6 (myc "on") cells = assay: Cell proliferation assay (72 hrs, Cell Titer Glo or Viacount FACS); format: cell-based
Description: P493-6 (myc “on”) cells were maintained in growth media (RPMI-1640, 10% FBS, 2 mM glutamine, 100 units/ml Penicillin and 100 μg/ml streptomycin) at 37° C. with 5% CO2. For compound assay, P493-6 cells were plated in 96-well V-bottom plates on the day of compound addition in 50 μl of growth media at a cell density of 200,000 cells/ml (10,000 cells/well). Compounds were serially diluted in 100% DMSO at 200-times the final concentration. Compounds were diluted 100-fold into growth media and then 50 μl of this mixture was added to cell plates making the final concentration of DMSO 0.5%. Cells were incubated with compound for 72 hrs at 37° C. with 5% CO2 and analyzed for antiproliferative effects either by Cell Titer Glo (Promega) or FACS analysis using the Viacount (Millipore) kit on the Guava instrument.

[2] = read-out: Cell prolif P493 72 h IC50, P493 cells, 72 h
[3] = P493-6 (myc on) cells, 72 hrs, read-out: Cell prolif P493 IC50
[4] = P493-6, read-out: Cell prolif P493 72 h IC50, P493 cells, 72 h

SMILES | pIC50 (P493-6 (myc "on") cells; [2]) | other results
O=C(Nc1nnc(CCCCc2nnc(NC(=O)C3COc4ccccc43)s2)s1)C1COc2ccccc21 (centres unmarked) [Compound 135] |  | pIC50 [1]: 6.52
O=C(CN1C(=O)OC[C@H]1c1ccccc1)Nc1nnc(CCSCCc2nnc(NC(=O)CN3C(=O)OC[C@H]3c3ccccc3)s2)s1 [Compound 243] | 4.48 | 
COc1ccccc1CC(=O)Nc1nnc(CCSCc2nnc(NC(=O)Cc3ccccc3OC)s2)s1 [Compound 249] | 6.80 | 
COc1cccc(C(CO)C(=O)Nc2nnc(CCSCc3nnc(NC(=O)C(CO)c4cccc(OC)c4)s3)s2)c1 (centres unmarked) [Compound 258] | 6.74 | 
O=C(Cc1ccccc1)Nc1ccc(CCCCc2nnc(NC(=O)Cc3cccc(O)c3)s2)nn1 [Compound 337] |  | pIC50 [1]: 7.12
COc1cccc(C(CO)C(=O)Nc2nnc(CCCCc3nnc(NC(=O)C(CO)c4cccc(OC)c4)s3)s2)c1 (centres unmarked) [Compound 257] | 7.14 | 
O=C(Cc1ccc(OC(F)(F)F)cc1)Nc1ccc(CCCCc2nnc(NC(=O)Cc3ccccc3)s2)nn1 [Compound 615] |  | pIC50 (P493-6 (myc "on") cells; [3]): 7.92
O=C(Cc1cccc(Cn2cccn2)c1)Nc1nnc(CCCCc2nnc(NC(=O)Cc3cccc(Cn4cccn4)c3)s2)s1 [Compound 362] | 7.27 | 
O=C(N[C@@H](CO)C(=O)Nc1nnc(CCSCCc2nnc(NC(=O)[C@H](CO)NC(=O)OCc3ccccc3)s2)s1)OCc1ccccc1 [Compound 138] |  | pIC50 [1]: 6.12
COc1cccc(CC(=O)Nc2nnc(CCSCc3nnc(NC(=O)Cc4cccc(OC)c4)s3)s2)c1 [Compound 250] | 6.85 | pIC50 [1]: 6.92
O=C(Cc1nnc(CCSCCc2nnc(NC(=O)C3CCOCC3)s2)s1)C1CCOCC1 [Compound 108] |  | pIC50 [1]: < 4.70
Cc1ccccc1C(C)C(=O)Nc1nnc(CCSCCc2nnc(NC(=O)C(C)c3ccccc3C)s2)s1 (centres unmarked) [Compound 262] | 5.51 | 
Nc1cccc(CC(=O)Nc2nnc(CCCCc3nnc(NC(=O)Cc4cccc(N)c4)s3)s2)c1 [Compound 329] | 6.35 | pIC50 [1]: 6.77
O=C(Cc1cc2ccccc2s1)Nc1cnc(CCSCCc2nnc(NC(=O)Cc3cc4ccccc4s3)s2)s1 [Compound 207] |  | pIC50 [1]: 4.89
Cc1cccc(CC(=O)Nc2nnc(CCSCCc3nnc(NC(=O)Cc4cccc(C)c4)s3)s2)c1 [Compound 247] | 6.08 | 
O=C(Cc1ccc(Cl)s1)Nc1cnc(CCSCCc2nnc(NC(=O)Cc3ccc(Cl)s3)s2)s1 [Compound 206] |  | pIC50 [1]: < 4.70
COc1ccccc1CC(=O)Nc1nnc(CCSCCc2nnc(NC(=O)C(CO)c3ccccc3OC)s2)s1 (centres unmarked) [Compound 246] | 5.80 | 
CC(C)(C)OC(=O)N1CCN(Cc2cccc(CC(=O)Nc3nnc(CCSCc4nnc(NC(=O)Cc5cccc(CN6CCN(C(=O)OC(C)(C)C)CC6)c5)s4)s3)c2)CC1 [Compound 275] | 6.47 | 
CC(C(=O)Nc1nnc(CCCCc2ccc(NC(=O)Cc3ccccc3)nn2)s1)c1ccc(F)c(CNC(=O)OC(C)(C)C)c1 (centres unmarked) [Compound 568] |  | pIC50 (P493-6 (myc "on") cells; [3]): 7.55
O=C(Cc1ccc2ncccc2c1)Nc1nnc(CCSCCc2nnc(NC(=O)Cc3ccc4ncccc4c3)s2)s1 [Compound 268] | 5.27 | 
CCCC(=O)OCN(C(=O)C(CO)c1cccc(CNC(=O)OC(C)(C)C)c1)c1nnc(CCCCc2ccc(NC(=O)Cc3ccccc3)nn2)s1 (centres unmarked) [Compound 567] |  | pIC50 (P493-6 (myc "on") cells; [3]): 7.68
O=C(C[C@@H](O)c1ccccc1)Nc1nnc(CCSCCc2nnc(NC(=O)C[C@@H](O)C3CCCCC3)s2)s1 [Compound 126] |  | pIC50 (P493-6 (myc "on") cells; [4]): 4.92
O=C(Cc1cccc(-n2ccnc2)c1)Nc1nnc(CCCCc2nnc(NC(=O)Cc3cccc(-n4ccnc4)c3)s2)s1 [Compound 363] | < 4.70 | 
O=C(Cc1cc2ccccc2o1)Nc1nnc(CCSCCc2nnc(NC(=O)Cc3cc4ccccc4o3)s2)s1 [Compound 193] |  | pIC50 [1]: 5.47

SMILES | pIC50 (P493-6 (myc "on") cells; [2]) | other results
CCNC(=O)CC(C)c1cccc(CC(=O)Nc2ccc(CCCCc3nnc(NC(=O)Cc4cccc(OC(F)(F)F)c4)s3)nn2)c1 (centres unmarked) [Compound 596] |  | pIC50 (P493-6 (myc "on") cells; [3]): 6.48
O=C(Cc1cccc(OC(F)(F)F)c1)Nc1ccc(CCCCc2nnc(NC(=O)Cn3c(CN4CCOCC4)nc4ccccc43)s2)nn1 [Compound 702] |  | pIC50 (P493-6 (myc "on") cells; [3]): 6.51
CC(C)(C)OC(=O)Nc1ccc(CC(=O)Nc2nnc(CCCCc3nnc(NC(=O)Cc4ccc(NC(=O)OC(C)(C)C)cc4)s3)s2)cc1 [Compound 192] |  | pIC50 [1]: < 4.70
CC(C(=O)Nc1nnc(CCSCCc2nnc(NC(=O)C(C)c3ccccc3Cl)s2)s1)c1ccccc1Cl (centres unmarked) [Compound 261] | 5.59 | 
CC(C)(C)c1ccc(CC(=O)Nc2nnc(CCCCc3nnc(NC(=O)Cc4ccc(C(C)(C)C)cc4)s3)s2)cc1 [Compound 191] |  | pIC50 [1]: < 4.70
COc1cc(CC(=O)Nc2nnc(CCSCCc3nnc(NC(=O)Cc4cc(OC)cc(OC)c4)s3)s2)cc(OC)c1 [Compound 202] |  | pIC50 [1]: 6.74
CC[C@](O)(C(=O)Nc1nnc(CCCCc2nnc(NC(=O)[C@@](O)(CC)c3ccccc3)s2)s1)c1ccccc1 (single isomer, unassigned) [Compound 144] |  | pIC50 [1]: < 4.70
O=C(Cc1cccc(OCCO)c1)Nc1nnc(CCSCCc2nnc(NC(=O)Cc3cccc(OCCO)c3)s2)s1 [Compound 236] | 5.85 | 
O=C(Cc1cccc(Br)c1)Nc1nnc(CCSCCc2nnc(NC(=O)Cc3cccc(Br)c3)s2)s1 [Compound 270] | 6.07 | 
CCOC(=O)Nc1nnc(CCCCc2nnc(NC(=O)Cc3ccccc3)s2)s1 [Compound 244] | 5.77 | 
COc1ccccc1CC(=O)Nc1nnc(CCCCc2nnc(NC(=O)Cc3ccccc3OC)s2)s1 [Compound 264] | 8.00 | 
COC(C(=O)Nc1nnc(CCSCCc2nnc(NC(=O)C(OC)c3ccccc3)s2)s1)c1ccccc1 (centres unmarked) [Compound 67] | 5.74 | 
COc1cccc(CC(=O)Nc2nnc(CCSCCc3nnc(NC(=O)Cc4cccc(OC)c4OC)s3)s2)c1OC [Compound 259] | 6.24 | 
COc1cccc(CC(=O)Nc2nnc(CCCCc3nnc(NC(=O)Cc4cccc(OC)c4OC)s3)s2)c1OC [Compound 260] | 7.08 | 
CC(C)(C)OC(=O)Nc1cccc(CC(=O)Nc2nnc(CCCCc3nnc(NC(=O)Cc4cccc(NC(=O)OC(C)(C)C)c4)s3)s2)c1 [Compound 327] | 6.82 | 
CC1(C)O[C@@H](C(=O)Nc2nnc(CCCCc3nnc(NC(=O)[C@@H]4OC(C)(C)O[C@H]4c4ccccc4)s3)s2)[C@H](c2ccccc2)O1 [Compound 223] |  | pIC50 [1]: < 4.70
O=C(Cc1cccc(-n2cccn2)c1)Nc1nnc(CCCCc2nnc(NC(=O)Cc3cccc(-n4cccn4)c3)s2)s1 [Compound 285] | 6.85 | 
O=C(Cc1cccc(OCCN2CCOCC2)c1)Nc1nnc(CCSCCc2nnc(NC(=O)Cc3cccc(OCCN4CCOCC4)c3)s2)s1 [Compound 240] | 5.89 | 
CC(C(=O)Nc1nnc(CCCCc2nnc(NC(=O)C(C)c3ccccc3Cl)s2)s1)c1ccccc1Cl (centres unmarked) [Compound 274] | 6.17 | 
O=C(Cc1cccc(OCCN2CCOCC2)c1)Nc1nnc(CCSCc2nnc(NC(=O)Cc3cccc(OCCN4CCOCC4)c3)s2)s1 [Compound 267] | 6.19 | 
CCOC(=O)Nc1nnc(CCCCc2nnc(NC(=O)Cc3ccccc3)s2)s1 [Compound 369] |  | pIC50 (P493-6 (myc "on") cells; [4]): 5.72
O=C(Cc1ccc2ncccc2c1)Nc1nnc(CCCCc2nnc(NC(=O)Cc3ccc4ncccc4c3)s2)s1 [Compound 269] | 6.28 | 
O=C(Cc1cccs1)Nc1nnc(CCSCc2nnc(NC(=O)Cc3cccs3)s2)s1 [Compound 237] | 6.60 | 
CC1(CC(=O)Nc2ccc(CCCCc3nnc(NC(=O)Cc4cccc(CNC(=O)OC(C)(C)C)c4)s3)nn2)COC(C)(C)OC1 [Compound 529] |  | pIC50 (P493-6 (myc "on") cells; [3]): 6.80
